Test results from patent publication US20200397817A1, “METHOD FOR PREDICTING AND MODULATING SUSCEPTIBILITY OF CANCER CELL TO PROGRAMMED CELL DEATH” (SHIEH, Darbin, priority 2017, published 2020).

Experiments:
[1] = test system: ZVI sensitive OEC-M1 cells; assay: Cell survival assay, ZVI@CMC NPs plus ROS scavenger, OEC-M1; assay type: cell-based; settings: 48 h, FIG. 4; for cell viability recovered as compared with ZVI@CMC NPs alone: ROS scavenger together with 5 μg/mL ZVI@CMC NPs
Procedure: (§1) Cytotoxicity of the ZVI NPs was evaluated by the MTT assay using 3-(4,5-dimethylthiazol-2-yl)-2,5-diphenyltetrazolium bromide. Log-phase OSCC cells were seeded at a density of 5000 cells per well in a 96-well culture plate and incubated for 16 h. The attached cells were then incubated with a series of concentrations of ZVI NPs for 48 h. Subsequently, culture medium of the cells were replaced by fresh complete medium contained 0.5 mg/mL of MTT and the cells were incubated at 37° C. for 1 h. After removing the medium, the resulting MTT crystals were dissolved in DMSO and measured for their optical absorbance at 550 nm to determine viability of the cells.
(§2) Additionally, various cell survival assays were conducted by incubating the cells with 5 μg/mL of ZVI@CMC NPs in combination with an iron chelator (eg. 1 μM of 1, 10-phenanthroline or 1 μM of desferoxamine (DFO)), a ROS scavenger (eg. 100 μM of vitamin C, 100 μM of vitamin E, 100 μM of TEMPOL, 5 μM of mito-lEMPOL, 100 μM Trolox, 100 μM Tiron, or 500 μM NAC), a ferroptosis inhibitor (eg. 5 μM of liproxstatin and 50 μM of ferrostatin) or a ferroptosis inducer (eg. 0.05 μM of RSL-3 or 1 μM of erastin) for 48 h.

[2] = test system: ZVI refractory HSC-3, SAS and OEC-M1 R3 cells; assay: Cell survival assay, ZVI@CMC NPs plus ferroptosis inducer, refractory cells; assay type: cell-based; settings: ferroptosis inducer in combination with 5 μg/mL ZVI@CMC NPs, 48 h; FIG. 10A
Procedure: as §1, §2

ZVI refractory cells = assay: Depolarized cells, ZVI@CMC NPs plus ferroptosis inducer, refractory cells; assay type: cell-based; settings: ferroptosis inducer with ZVI@CMC NPs; FIG. 10A
ZVI refractory SAS cells = assay: SAS tumor xenograft in SCID mice, tumor growth; assay type: in vivo; settings: 20 mg/kg RSL-3 together with 25 mg/kg ZVI@CMC NPs, tail vein, every other day x4; FIGS. 10B-10D
Excerpt: Six to eight week old male mice with severe combined immunodeficiency (SCID) were used as the hosts for OSCC tumor xenografts. 3×10^6 SAS cells were subcutaneously injected into the dorsal flank of the mice to establish tumor lesions. A visible tumor mass was normally observed 1.5 to 2 weeks after the injection. When the tumor size reached approximately 50 mm^3, the mice were randomly assigned to four groups, including a PBS control group, a RSL-3 treatment group, a ZVI@CMC NP treatment group and a ZVI@CMC NP+RSL-3 treatment group (n=4 per group). PBS solution, 20 mg/kg of RSL-3 and 25 mg/kg of ZVI@CMC NPs were individually administered to the mice through tail vein injection once every other day for four times before the final tumor size in every group was measured. The Tumor volumes were measured by a digital caliper and calculated using the formula: […].

[3] = test system: ZVI sensitive SCC-9 and OEC-M1 cell lines; assay: Mitochondrial membrane potential (MitoTracker flow cytometry), sensitive lines; assay type: cell-based; settings: added to ZVI@CMC NPs; FIG. 7C
Procedure: Depolarization of the ZVI NP treated cells was assessed by double staining with 50 nM of MitoTracker Green, a commercial dye for indicating total mitochondrial mass, and 100 nM of MitoTracker Deep Red, another commercial dye for indicating mitochondria membrane potential (ΔΨ), at 37° C. for 30 min, followed by analysis of red fluorescent signals under an excitation wavelength of 644 nm and an emission wavelength of 665 nm and green fluorescent signals under an excitation wavelength of 490 nm and an emission wavelength of 516 nm by a BD Canto II Flow Cytometer.

[4] = test system: ZVI sensitive cells OEC-M1 and SCC-9; assay: Cell survival assay, ZVI@CMC NPs plus co-agent, OEC-M1 and SCC-9; settings: added to 5 μg/mL ZVI@CMC NPs, 48 h; FIG. 7B
Procedure: as §1, §2

Cc1c(C)c2c(c(C)c1O)CCC(C)(C(=O)O)O2 (stereo not shown) [Trolox, 6-Hydroxy-2,5,7,8-tetramethylchroman-2-carboxylic acid]
cell viability recovered as compared with ZVI@CMC NPs alone [1]: about 50%

CC(=O)N[C@@H](CS)C(=O)O [NAC, N-acetylcysteine]
effect of co-agent on cytotoxicity of ZVI@CMC NPs ([1]; cotreatment with 5 μg/mL ZVI@CMC NPs): reduce cytotoxicity

COC(=O)c1ccc([C@H]2c3[nH]c4ccccc4c3C[C@H](C(=O)OC)N2C(=O)CCl)cc1 [RSL-3, methyl (1S,3R)-2-(2-chloroacetyl)-1-(4-methoxycarbonylphenyl)-1,3,4,9-tetrahydropyrido[3,4-b]indole-3-carboxylate]
cell viability as compared with ZVI@CMC NPs alone [2]: significantly reduced | percentage of depolarized cells (ZVI refractory cells): dramatically increased | tumor growth as compared to ZVI@CMC NPs or RSL-3 alone (ZVI refractory SAS cells): significantly delayed

Clc1cccc(CN=C2Nc3ccccc3NC23CCNCC3)c1 [liproxstatin]
percentage of depolarized cells caused by ZVI@CMC NP induced mitochondrial hyperoxidation [3]: reduce the percentage of depolarized cells | recovery of cell viability of ZVI@CMC NP treated cells [4]: ~50%

CCOc1ccccc1-n1c(C(C)N2CCN(C(=O)COc3ccc(Cl)cc3)CC2)nc2ccccc2c1=O (stereo not shown) [erastin, 2-[1-[4-[2-(4-chlorophenoxy)acetyl]piperazin-1-yl]ethyl]-3-(2-ethoxyphenyl)quinazolin-4-one]
cell viability as compared with ZVI@CMC NPs alone [2]: significantly reduced | percentage of depolarized cells (ZVI refractory cells): dramatically increased

O=S(=O)([O-])c1cc(O)c(O)c(S(=O)(=O)[O-])c1.[Na+].[Na+] [Tiron, disodium 4,5-dihydroxy-1,3-benzenedisulfonate]
cell viability recovered as compared with ZVI@CMC NPs alone [1]: about 50%

CCOC(=O)c1ccc(NC2CCCCC2)c(N)c1 [ferrostatin]
percentage of depolarized cells caused by ZVI@CMC NP induced mitochondrial hyperoxidation [3]: reduce the percentage of depolarized cells | recovery of cell viability of ZVI@CMC NP treated cells [4]: ~50%

CC1(C)CC(O)CC(C)(C)N1[O] [TEMPOL, 4-hydroxy-2,2,6,6-tetramethylpiperidin-1-oxyl]
cell viability recovered as compared with ZVI@CMC NPs alone [1]: about 50%
